# Data taken from patent US12344610B2, “APOL1 inhibitors and methods of use” (Maze Therapeutics, Inc., priority 2022, dated 2025).
# Assays:
# [1] = system: Trypanosoma brucei Lister 427 VSG221 with APOL1 G0 recombinant protein; assay: APOL1 G0 trypanosome cell rescue assay (Example B5); format: cell-based; details: Trypanosoma brucei, 20 h, read-out: APOL1 G0 Trypanosome Rescue EC50, Trypanosoma brucei Lister 427 VSG221 with APOL1 G0 recombinant protein, 20 hours, CellTiter-Glo; geometric mean of at least 2 assay runs; † = single assay run
# How it was run: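 Viability read by CellTiter-Glo luminescence after 20 h co-incubation (37° C, 5% CO2) of 250 trypanosomes/well in modified HMI-9 with test compound (duplicate 11-point, 2-fold dilutions, 0.4% DMSO) and APOL1 protein, […]. Protein: mature residues 28-398, E. coli inclusion-body refolded, tag cleaved, in DDM.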
# [2] = system: HEK293 clonal cell line overexpressing APOL1 G1; assay: APOL1 G1 HEK293 cell rescue assay (Example B3); format: cell-based; details: Homo sapiens, HEK293, HEK293 clonal line overexpressing APOL1 G1; geometric mean of at least 2 runs; † = single run; ¥ = concentration at 50% rescue estimated (no sigmoidal curve)
# How it was run: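 Rescue of cell death caused by APOL1 G1 overexpression was measured in a clonal HEK293 line. Compounds were tested in duplicate on one plate, and EC50s were geometric means across at least two runs on different days. Some values are estimated 50%-rescue concentrations where curve fitting failed.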
SMILES,EC50 [1],EC50 [2]
"CS(=O)(=O)C1(c2ccc(OCCN3CCC4(CC3)C(=O)Nc3ccc(C#N)cc34)cc2)CCC1 [Compound 181, 1′-{2-[4-(1-methanesulfonylcyclobutyl)phenoxy]ethyl}-2-oxo-1,2-dihydrospiro[indole-3,4′-piperidine]-5-carbonitrile]",0.158 µM,0.194 µM
"CS(=O)(=O)C1(c2ccc(OCCN3CCC4(CC3)C(=O)Nc3ccc(Cl)cc34)cc2)CC2(COC2)C1 [Compound 182, 5-chloro-1′-[2-(4-{6-methanesulfonyl-2-oxaspiro[3.3]heptan-6-yl}phenoxy)ethyl]-1,2-dihydrospiro[indole-3,4′-piperidin]-2-one]",0.401 µM,0.225 µM
"CS(=O)(=O)C1(c2ccc(OCCN3CCC4(CC3)C(=O)N(CC(F)(F)F)c3ccc(C#N)cc34)cc2)COC1 [Compound 184, 1′-{2-[4-(3-methanesulfonyloxetan-3-yl)phenoxy]ethyl}-2-oxo-1-(2,2,2-trifluoroethyl)-1,2-dihydrospiro[indole-3,4′-piperidine]-5-carbonitrile]",1.6 µM,~2.5 µM
"CS(=O)(=O)C1(c2ccc(OCCN3CCC4(CC3)C(=O)N(CC(F)(F)F)c3ccc(Cl)cc34)cc2)COC1 [Compound 185, 5-chloro-1′-{2-[4-(3-methanesulfonyloxetan-3-yl)phenoxy]ethyl}-1-(2,2,2-trifluoroethyl)-1,2-dihydrospiro[indole-3,4′-piperidin]-2-one]",0.31 µM,0.231 µM
"CS(=O)(=O)C1(c2ccc(OCCN3CCC4(CC3)C(=O)Nc3ccc(Cl)cc34)cc2)CCOCC1 [Compound 188, 5-chloro-1′-{2-[4-(4-methanesulfonyloxan-4-yl)phenoxy]ethyl}-1,2-dihydrospiro[indole-3,4′-piperidin]-2-one]",0.071 µM,0.122 µM
"CN1C(=O)C2(CCN(CCOc3cc(F)c(C4(S(C)(=O)=O)COC4)c(F)c3)CC2)c2cc(C#N)ccc21 [Compound 189, 1′-{2-[3,5-difluoro-4-(3-methanesulfonyloxetan-3-yl)phenoxy]ethyl}-1-methyl-2-oxo-1,2-dihydrospiro[indole-3,4′-piperidine]-5-carbonitrile]",0.167 µM,0.148 µM
"CC(C)(c1ccc(OCCN2CCC3(CC2)C(=O)Nc2ccc(C#N)cc23)cn1)S(C)(=O)=O [Compound 191, 1′-(2-{[6-(2-methanesulfonylpropan-2-yl)pyridin-3-yl]oxy}ethyl)-2-oxo-1,2-dihydrospiro[indole-3,4′-piperidine]-5-carbonitrile]",0.251 µM,0.283 µM
